{"source": "patent US20140315972A1", "about": "“RS)-2-(2-oxo-4-phenylpyrrolidin-1-yl)acetamide compound having modulatory activity with a commensurate effect, pharmaceutical substance (variants) and its application, composition (variants) thereof” (priority 2011, published 2014)", "key": {"[1]": {"test": "Acute toxicity, single intraperitoneal injection in rats aged 30-35 days", "format": "in vivo", "settings": "both sexes, white outbred, rat, in vivo, ip; rats 30-35 days; single i.p.", "experimental": "(§1) Tables 2, 2.1 and 2.2 present the results of acute toxicity studies of the Compounds with active substance content in at least white outbred male mice (body weight 18-24 g) and white outbred rats 30-35 days of age, of both sexes with a single dose. Calculation of toxic doses was made using the Wilcoxon and Litchfield method. Observations were made over 24 hours and 14 days after a single dose.\n(§2) LD50 in rat pups after intragastric administration was not found. Intragastric administration to rat pups of doses of more than 1000 mg/kg is technically impossible due to the small volume of the stomach (Table 2.2)."}, "rats [2]": {"test_system": "rats", "test": "Acute toxicity, single intraperitoneal injection in rats aged 30-35 days", "format": "in vivo", "experimental": "as §1, §2"}, "rats [3]": {"test_system": "rats", "test": "Scopolamine-induced CRPA amnesia in rats 30-35 days of age", "format": "in vivo", "from_the_text": "Phenotropil has a pronounced mnemotropic and nootropic activity. The results of the study of the antiamnestic activity (classical technique in the equipment manufactured by Lafayette Instrument Co, USA) in the retrograde amnesia of the passive avoidance conditional reflex (CRPA) induced by maximal electroshock (MES) and scopolamine in male rats (180-250 g) are shown in Table 7. […] Taking into account the studies using the open field and cross maze tests, the nootropic action component of the modulatory drug not only may be more pronounced, but is broader in manifestation depending on the type of disorder or in unfamiliar situational conditions. The pronounced nootropic activity of Phenotropil (100, 200, 300 mg/kg) also manifests in rat pups of both sexes 30-35 days of age (Table 7.1) after scopolamine-induced CRPA amnesia.\nIn studying immature animals, it must be considered that to generate CRPA it is required, as was established, to apply higher educational incentives (0.6 mA, 8 pulses vs 5 pulses at 0.45 mA in adult rats) with re-training (after 48 hours). Development of amnesia also requires a higher dose of scopolamine (1.3 mg/kg) in rat pups. […] Phenotropil has not only a psychomodulatory (Ψ-modulatory) activity but also a Ψ-operandmodulatory activity given that the mnemotropic effect is associated with the expression of specific proteins and genes involved in memory, attention and learning."}, "patients": {"test_system": "patients", "test": "Seborrhea of scalp and face skin, topical solution", "format": "in vivo, human", "settings": "for Efficacy expressed in points on a 4-point scale (seborrhea): humans", "experimental": "A study of effect of Phenotropil on the scalp and face skin in seborrhea oleosa and on the scalp skin in dry seborrhea, as well in the mixed form, was performed on mixed groups of both sexes (15-37 years). The 0.1% Phenotropil solution was used. In the group with mixed form, additional Phenotropil tablets were administered at a dose of 100 mg per day (in the morning). The baseline examinations were used as control. The prepared samples were rubbed into the scalp once a day 1 or 2 hours before bedtime. In the case of acneiform rash, the skin was wiped in the morning and evening by cotton pads soaked (as usual lotion) by 0.1% aqueous Phenotropil. Washing the hair using shampoo was not recommended. A neutral baby soap “Alice” by OAO Svoboda and the rinse prepared with 25 ml of lemon juice and 100 mg Phenotropil powder per 1000.0 ml water were used. Studies were conducted for 28 calendar days with monitoring examinations every 14 days. In the dry seborrhea group, three patients withdrew from the study after two weeks due to reluctance to undergo further examination; they found it difficult to comply with the regime of the detergents use. The skin state was assessed by a 4-point system, where 0—absent, 1—the effect intensity less than 50.0%, 2—the effect intensity more than 50.0%, 3—the effect intensity more than 80% but less than 100.0% of the cases."}, "rats [4]": {"test_system": "rats", "test": "Scopolamine-induced CRPA amnesia, preventive and therapeutic use, adult male rats", "format": "in vivo", "from_the_text": "These findings are of great importance. In clinic, medications have to be prescribed more often already in the midst of disorders."}, "women": {"test_system": "women", "test": "Skin aging, vessels and joints, topical solution and creams", "format": "in vivo, human", "settings": "for Efficacy in % relative to baseline control (skin aging) / Efficacy in % (skin aging) / Efficacy expressed in % (age-related changes of blood vessels and joints) / Efficacy expressed in % (skin aging): humans, topical course; for Efficacy in % (skin aging): baseline control = 100.0; for Efficacy expressed in % (age-related changes of blood vessels and joints) / Efficacy expressed in % (skin aging): baseline control = 100", "experimental": "Example 24 presents the results of research of Phenotropil as parapharmaceutic—cosmeceutical agents in women (age 53-60 years) and as a standard solution. The 0.1% water solution (distilled water) of Phenotropil and placebo was prepared; for convenience of preparing therapeutic cream formulation, the standard composition of cream base was used, or actual creams “Vecher”, “Lux” and “Gerantol” manufactured by “Svoboda” (Russia) were used as the base, with 100, 200, 300 mg of Phenotropil per 100 g of finished compositions to prepare a cosmeceutical agent. The cosmeceutical formulations were prepared with the powder of Compound 1 sifted and well ground in a mortar.\nAt baseline examination, main indicators of the skin condition of the hands and face in the groups were recorded, integral index for aggregate characteristics was calculated (dryness, wrinkling, superficial vascular fascicles, the intensity of subcutaneous vascular pattern, pigmentation—the intensity of color, the number of pigment spots and their total area). Preliminarily, each subject was tested for allergic skin reaction with the most concentrated formulation. No allergic reactions have been identified. In one group, only solution of Phenotropil was used in the morning and evening, applying a small amount (like a regular lotion) of the solution on cosmetic cotton pads and wiping the face and hands. In the other groups, this procedure was carried out before applying the Phenotropil-containing cream. The results of the baseline evaluation in each group were taken for 100.0%."}, "[5]": {"settings": "100.0 mg/kg before training + scopolamine"}, "[6]": {"settings": "100.0 mg/kg during training and scopolamine"}}, "note": "Marks after values point to notes of the source that are not given here."}
{"smiles": "NC(=O)CN1CC(c2ccccc2)CC1=O", "note": "(racemic) [Compound 1, (RS)-2-(2-oxo-4-phenylpyrrolidine-1-yl)acetamide]", "values": [{"measurement": "LD50 at 14 days", "setting": "[1]", "result": 1030, "unit": "mg/kg"}, {"measurement": "LD16", "setting": "rats [2]; rats 30-35 days, single i.p.", "result": "LD16 = 906.7 mg/kg"}, {"measurement": "LD84", "setting": "rats [2]; rats 30-35 days, single i.p.", "result": "LD84 = 1159.0 mg/kg"}, {"measurement": "Dead/total number", "setting": "rats [2]; rats 30-35 days, single i.p. 800 mg/kg", "result": "0/10"}, {"measurement": "Dead/total number", "setting": "rats [2]; rats 30-35 days, single i.p. 1000 mg/kg", "result": "4/10"}, {"measurement": "Dead/total number", "setting": "rats [2]; rats 30-35 days, single i.p. 1100 mg/kg", "result": "9/10"}, {"measurement": "Dead/total number", "setting": "rats [2]; rats 30-35 days, single i.p. 1200 mg/kg", "result": "9/10"}, {"measurement": "Dead/total number", "setting": "rats [2]; rats 30-35 days, single i.p. 1500 mg/kg", "result": "10/10"}, {"measurement": "% of dead rat pups", "setting": "rats [2]; single i.p. 800 mg/kg", "result": 0, "unit": "%"}, {"measurement": "% of dead rat pups", "setting": "rats [2]; single i.p. 1000 mg/kg", "result": 40, "unit": "%"}, {"measurement": "% of dead rat pups", "setting": "rats [2]; single i.p. 1100 mg/kg", "result": 90, "unit": "%"}, {"measurement": "% of dead rat pups", "setting": "rats [2]; single i.p. 1200 mg/kg", "result": 90, "unit": "%"}, {"measurement": "% of dead rat pups", "setting": "rats [2]; single i.p. 1500 mg/kg", "result": 100, "unit": "%"}, {"measurement": "LP1 (training)", "setting": "rats [3]; 100 mg/kg", "result": "7.2 ± 2.8"}, {"measurement": "LP2 (at 24 hours)", "setting": "rats [3]; 100 mg/kg", "result": "25.2 ± 3.8"}, {"measurement": "ΔLP", "setting": "rats [3]; 100 mg/kg", "result": "18.0 ± 2.9"}, {"measurement": "LP1 (training)", "setting": "rats [3]; 200 mg/kg", "result": "11.0 ± 3.0"}, {"measurement": "LP2 (at 24 hours)", "setting": "rats [3]; 200 mg/kg", "result": "45.2 ± 7.3"}, {"measurement": "ΔLP", "setting": "rats [3]; 200 mg/kg", "result": "34.2 ± 9.0"}, {"measurement": "LP1 (training)", "setting": "rats [3]; 300 mg/kg", "result": "8.0 ± 3.0"}, {"measurement": "LP2 (at 24 hours)", "setting": "rats [3]; 300 mg/kg", "result": "82.4 ± 4.3"}, {"measurement": "ΔLP", "setting": "rats [3]; 300 mg/kg", "result": "74.4 ± 3.7"}, {"measurement": "therapeutic effect compared to control with simultaneous tablets", "setting": "patients; 0.1% solution + tablets 100 mg per day", "result": 300.0, "unit": "%"}, {"measurement": "therapeutic effect in seborrhoea compared with control", "setting": "patients; 0.1% solution, 28 days", "result": 200.0, "unit": "%"}, {"measurement": "Efficacy expressed in points on a 4-point scale (seborrhea)", "setting": "patients; DF (dry form), topically 0.1% aqueous solution", "result": "2* (the effect intensity more than 50.0%)"}, {"measurement": "Efficacy expressed in points on a 4-point scale (seborrhea)", "setting": "patients; MF (mixed form), oral 100 mg", "result": "1* (the effect intensity less than 50.0%)"}, {"measurement": "Efficacy expressed in points on a 4-point scale (seborrhea)", "setting": "patients; MF (mixed form), topically 0.1% aqueous solution + 100 mg orally", "result": "3* (the effect intensity more than 80% but less than 100.0% of the cases)"}, {"measurement": "Efficacy expressed in points on a 4-point scale (seborrhea)", "setting": "patients; OF (oily form), topically 0.1% aqueous solution", "result": "2* (the effect intensity more than 50.0%)"}, {"measurement": "% of animals that did not enter into the dark chamber", "setting": "rats [4]; [5]", "result": 80, "unit": "% *"}, {"measurement": "LP Pre-training", "setting": "rats [4]; [5]", "result": "17.0 ± 2.9"}, {"measurement": "LP of the training reproduction", "setting": "rats [4]; [5]", "result": "94.1 ± 8.7"}, {"measurement": "Number of animals that did not enter into the dark chamber", "setting": "rats [4]; [5]", "result": "16/20"}, {"measurement": "Time spent in the dark chamber", "setting": "rats [4]; [5]", "result": "49.9 ± 6.9"}, {"measurement": "% of animals that did not enter into the dark chamber", "setting": "rats [4]; [6]", "result": 70, "unit": "% *"}, {"measurement": "LP Pre-training", "setting": "rats [4]; [6]", "result": "18.4 ± 3.3"}, {"measurement": "LP of the training reproduction", "setting": "rats [4]; [6]", "result": "91.1 ± 10.1"}, {"measurement": "Number of animals that did not enter into the dark chamber", "setting": "rats [4]; [6]", "result": "14/20"}, {"measurement": "Time spent in the dark chamber", "setting": "rats [4]; [6]", "result": "63.4 ± 12.5"}, {"measurement": "subjects with mild morning facial swelling", "setting": "women; cream applied less than two hours before bedtime", "result": 18.0, "unit": "%"}, {"measurement": "Efficacy in % relative to baseline control (skin aging)", "setting": "women; 50 mg + “Gerantol” cream 100 g", "result": "132.0 * %"}, {"measurement": "Efficacy in % (skin aging)", "setting": "women; 50 mg + “Lux” cream 100 g", "result": "167.0 * %"}, {"measurement": "Efficacy expressed in % (age-related changes of blood vessels and joints)", "setting": "women; 100 mg + 100 g of cream base", "result": "211* %"}, {"measurement": "Efficacy in % relative to baseline control (skin aging)", "setting": "women; 100 mg + “Gerantol” cream 100 g", "result": "205.0 * %"}, {"measurement": "Efficacy in % (skin aging)", "setting": "women; 100 mg + “Lux” cream 100 g", "result": "210.0 * %"}, {"measurement": "Efficacy expressed in % (skin aging)", "setting": "women; 100 mg + “Vecher” cream 100 g", "result": "317* %"}, {"measurement": "Efficacy expressed in % (age-related changes of blood vessels and joints)", "setting": "women; 200 mg + 100 g of cream base", "result": "219* %"}, {"measurement": "Efficacy in % relative to baseline control (skin aging)", "setting": "women; 200 mg + “Gerantol” cream 100 g", "result": "251.0 * %"}, {"measurement": "Efficacy in % (skin aging)", "setting": "women; 200 mg + “Lux” cream 100 g", "result": "240.0 * %"}, {"measurement": "Efficacy expressed in % (skin aging)", "setting": "women; 200 mg + “Vecher” cream 100 g", "result": "280* %"}, {"measurement": "Efficacy expressed in % (age-related changes of blood vessels and joints)", "setting": "women; 300 mg + 100 g of cream base", "result": "174* %"}, {"measurement": "Efficacy in % relative to baseline control (skin aging)", "setting": "women; 300 mg + “Gerantol” cream 100 g", "result": "277.0 * %"}, {"measurement": "Efficacy in % (skin aging)", "setting": "women; 300 mg + “Lux” cream 100 g", "result": "280.0 * %"}, {"measurement": "Efficacy expressed in % (skin aging)", "setting": "women; 300 mg + “Vecher” cream 100 g", "result": "249* %"}, {"measurement": "Efficacy in % (skin aging)", "setting": "women; aqueous solution 0.1%", "result": "212.0* %"}, {"measurement": "Efficacy in % (skin aging)", "setting": "women; cream, 50 mg per 100 g of the base", "result": "140.0 * %"}, {"measurement": "Efficacy in % (skin aging)", "setting": "women; cream, 100 mg per 100 g of the base", "result": "180.0 * %"}, {"measurement": "Efficacy in % (skin aging)", "setting": "women; cream, 200 mg per 100 g of the base", "result": "187.0 * %"}, {"measurement": "Efficacy in % (skin aging)", "setting": "women; cream, 300 mg per 100 g of the base", "result": "200.0 * %"}]}
